Test results reported in patent US11192921B2 (priority 2017, dated 2021).
“And” between values parts separate entries of the source, which are not always exact repeats. Equal values may be shown once. Read-outs that look alike come from different tables or passages of the source. Marks after values point to notes of the source that are not given here.

Legend:
[1] = tested on: Female Kunming mice
[2] = tested on: Female Kunming mice; format: in vivo
[3] = tested on: SD rats; assay: pain threshold of trigeminal nerve (trigeminal neuralgia model); format: in vivo; conditions: for highest pain threshold on the operative side / pain threshold on the opposite side: 3 h after injection; for Pain threshold: intraperitoneal
[4] = tested on: male BALB/c mice; assay: cancer-induced pain (CIP) model, thermosensitive test; format: in vivo
Protocol: Influence of Analgesic Polypeptides on Neuralgia in a Cancer-Induced Pain (CIP) Model
A number of male BALB/c mice each weighing 25-30 g were used.
Von Fery monofilament; a microsyringe, 5 mg/mL solutions of polypeptides I, II and II I; normal saline.
(§1) BALB/c mice were taken, and the right sciatic nerve was exposed; ascites containing 5×10^4 Meth A sarcoma cells were injected into the proximal nerve near the sciatic nerve trochanter far from the tendon branch of the posterior biceps, the wound was closed, and the same volume of normal saline was injected into the left side by performing a sham operation.
1.3.1 Thermosensitive Test
On the 4th, 7th, 10th and 14th days after inoculation, the latency of foot lifting caused by heat radiation stimulation to animals was observed, and the heat radiation intensity was adjusted to cause the latency of foot lifting of normal mice to be (10±2) s.
All data was expressed as M±SD and subjected to one-way ANOVA.

[5] = tested on: Female Kunming mice; remark: listed apart in the source
[6] = tested on: Kunming mice; format: in vivo
[7] = tested on: Kunming mice; conditions: mouse, in vivo
[8] = tested on: male BALB/c mice; assay: cancer-induced pain (CIP) model, gross behavior; format: in vivo; conditions: 14th day after inoculation
Protocol: as §1
On the 4th, 7th, 10th and 14th days after inoculation, spontaneous pain and foot drop and the like occurred before the occurrence of thermal sensitivity and mechanical pain sensitivity behaviors, […]

[9] = tested on: Female Kunming mice; remark: listed apart in the source
[10] = 50 μg/kg, injected subcutaneously
[11] = 100 μg/kg, injected subcutaneously

Gly-Ser-Cys-Ser-Thr-Pro-Pro-d{Cys}-Val-Leu-Tyr-Ser [Polypeptide I]
Duration of the immobility of mice in tail suspension tests ([1]; 1 h): 20.39 ± 1.21^ s | Duration of the immobility of mice in tail suspension tests ([1]; 24 h): 18.99 ± 1.48 s | Duration of the immobility of mice in tail suspension tests ([1]; Time 0): 20.57 ± 1.65 s | data of tail suspension test compared with the normal saline group ([1]; mouse, in vivo, ip): no significant difference | toxic side effects compared with the conotoxin (tail suspension) ([1]; mouse, in vivo, ip): lower toxic side effects | Pain threshold ([2]; 0 min): 28.32 ± 0.21 s | Pain threshold ([2]; mouse, in vivo, ip): 25.21 ± 0.42^∧∧ s and 31.32 ± 0.32*^∧ s and 24.23 ± 0.42^∧ s and 21.39 ± 0.45^∧ s and 29.23 ± 0.42 s and 23.44 ± 0.24 s | heat thresholds of mice compared with the normal saline negative control group ([2]; mouse, in vivo, ip): effectively increase the heat thresholds of mice | animal reaction thresholds ([3]; 50 μg/kg and 100 μg/kg, injected subcutaneously): significantly increased | time the pain thresholds lasted [3, 10]: 1 h | highest pain threshold on the operative side [3, 10]: 2.3 ± 0.5 g | pain threshold on the opposite side [3, 10]: 1.2 ± 0.2 g | time the effect on the operative side lasted [3, 11]: about 8 h | highest pain threshold on the operative side [3, 11]: 7.4 ± 0.9 g | pain threshold on the opposite side [3, 11]: 3.2 ± 1.3 g | pain threshold change ([3]; 300 μg/kg, subcutaneously): not significantly increased | Pain threshold ([3]; Dose 50 (μg/kg), 0 h): 25.44 ± 0.23 s | Pain threshold ([3]; Dose 50 (μg/kg), 1 h): 26.35 ± 0.65 s | Pain threshold ([3]; Dose 50 (μg/kg), 2 h): 26.89 ± 0.23 s | Pain threshold ([3]; Dose 50 (μg/kg), 3 h): 27.56 ± 0.56 s | Pain threshold ([3]; Dose 50 (μg/kg), 4 h): 26.45 ± 0.78 s | Pain threshold ([3]; Dose 50 (μg/kg), 5 h): 25.89 ± 0.12 s | Pain threshold ([3]; Dose 100 (μg/kg), 0 h): 25.11 ± 0.56 s | Pain threshold ([3]; Dose 100 (μg/kg), 1 h): 27.86 ± 0.95 s | Pain threshold ([3]; Dose 100 (μg/kg), 2 h): 28.12 ± 0.65 s | Pain threshold ([3]; Dose 100 (μg/kg), 3 h): 29.46 ± 0.61 s | Pain threshold ([3]; Dose 100 (μg/kg), 4 h): 26.43 ± 0.62 s | Pain threshold ([3]; Dose 100 (μg/kg), 5 h): 25.68 ± 0.33 s | Pain threshold ([3]; Dose 300 (μg/kg), 0 h): 26.65 ± 0.41 s | Pain threshold ([3]; Dose 300 (μg/kg), 1 h): 30.56 ± 0.11 s | Pain threshold ([3]; Dose 300 (μg/kg), 2 h): 30.53 ± 0.62 s | Pain threshold ([3]; Dose 300 (μg/kg), 3 h): 29.56 ± 0.12 s | Pain threshold ([3]; Dose 300 (μg/kg), 4 h): 28.15 ± 0.32 s | Pain threshold ([3]; Dose 300 (μg/kg), 5 h): 27.15 ± 0.65 s | increase of the latency of foot lifting ([4]; 14th day after inoculation): particularly significant | Latency of foot lifting before administration ([4]; heat radiation stimulation, before administration): 10.56 ± 0.89 | Latency (D) of foot lifting after administration ([4]; heat radiation stimulation, day 4): 10.01 ± 0.23 | Latency (D) of foot lifting after administration ([4]; heat radiation stimulation, day 7): 9.26 ± 0.99 | Latency (D) of foot lifting after administration ([4]; heat radiation stimulation, day 10): 8.56 ± 0.23 | Latency (D) of foot lifting after administration ([4]; heat radiation stimulation, day 14): 7.44 ± 0.85 | Movement duration of mice in forced swimming tests ([5]; 1 h): 20.39 ± 1.21^ s | Movement duration of mice in forced swimming tests ([5]; 24 h): 18.99 ± 1.48 s | Movement duration of mice in forced swimming tests ([5]; Time 0): 20.57 ± 1.65 s | toxic side effects compared with the conotoxin (forced swimming) ([5]; mouse, in vivo, ip): lower toxic side effects | Pain threshold (tail flick) ([6]; 0 min): 2.31 ± 0.12 s | Pain threshold (tail flick) ([6]; 15 min): 2.12 ± 0.21^∧∧ s | Pain threshold (tail flick) ([6]; 30 min): 2.12 ± 0.12 s | Pain threshold (tail flick) ([6]; 45 min): 3.22 ± 0.12^∧ s | Pain threshold (tail flick) ([6]; 60 min): 2.12 ± 0.21*^∧ s | Pain threshold (tail flick) ([6]; 75 min): 2.12 ± 0.12 s | Pain threshold (tail flick) ([6]; 90 min): 2.32 ± 0.14 s | difference from the conotoxin group during a time period (^^P<0.01) ([6]; mouse, in vivo): significantly different from the conotoxin group | analgesic effects in formalin-induced pain experiments [7]: good analgesic effects | cumulative foot licking time, Phase I [7]: 46.44 ± 10.28*^ | cumulative foot licking time, Phase II [7]: 42.10 ± 14.32*^ | left foot lifting behavior [8]: obviously observed | Movement distances of mice in open field tests ([9]; 1 h): 20.39 ± 1.21^ | Movement distances of mice in the center area in open field tests ([9]; 1 h): 20.39 ± 1.21^ | Movement distances of mice in the peripheral area in open field tests ([9]; 1 h): 20.39 ± 1.21^ | Number of entrances to the center area in open field tests ([9]; 1 h): 20.39 ± 1.21^ | Number of entrances to the peripheral area in open field tests ([9]; 1 h): 20.39 ± 1.21^ | Residence time in the center area in open field tests ([9]; 1 h): 20.39 ± 1.21^ s | Residence time in the peripheral area in open field tests ([9]; 1 h): 20.39 ± 1.21^ s | Movement distances of mice in open field tests ([9]; 24 h): 18.99 ± 1.48 m | Movement distances of mice in the center area in open field tests ([9]; 24 h): 18.99 ±1.48 m | Movement distances of mice in the peripheral area in open field tests ([9]; 24 h): 18.99 ± 1.48 m | Number of entrances to the center area in open field tests ([9]; 24 h): 18.99 ± 1.48 | Number of entrances to the peripheral area in open field tests ([9]; 24 h): 18.99 ± 1.48 | Residence time in the center area in open field tests ([9]; 24 h): 18.99 ± 1.48 s | Residence time in the peripheral area in open field tests ([9]; 24 h): 18.99 ± 1.48 s | Movement distances of mice in open field tests ([9]; Time 0): 20.57 ± 1.65 m | Movement distances of mice in the center area in open field tests ([9]; Time 0): 20.57 ±1.65 m | Movement distances of mice in the peripheral area in open field tests ([9]; Time 0): 20.57 ± 1.65 m | Number of entrances to the center area in open field tests ([9]; Time 0): 20.57 ± 1.65 | Number of entrances to the peripheral area in open field tests ([9]; Time 0): 20.57 ± 1.65 | Residence time in the center area in open field tests ([9]; Time 0): 20.57 ± 1.65 s | Residence time in the peripheral area in open field tests ([9]; Time 0): 20.57 ± 1.65 s | side effects compared with conotoxin (open field) ([9]; mouse, in vivo, ip): lower side effects | various indexes in open field experiments compared with the normal saline group ([9]; mouse, in vivo, ip): no significant difference
